The results in this text go back to patent US20170159101A1, “DRUG-RESISTANT P97 ATPASE MUTATIONS” (Cleave Biosciences, Inc., priority 2014, published 2017).

Test [1] relates to Hct116 resistant cell line clone #180 (p97 A569T). Kind of test: GI50 fold-change, resistant clone #180 vs parental. Type of test: cell-based, human. The note with it: Clone #180, Hct116, resistance generated with compound 4, G1705A / A569T; 72 hrs. The procedure: (§1) Dose titration of test compounds were conducted in Hct116, DLD-1, or LoVo cell lines. In brief, cells were plated in 384-well plates and a selected candidate drug compound was added in a 10-point 2-fold serial dilution.

Test [2] relates to Hct116 resistant cell line clone #117 (p97 L482I). The experiment in a line: GI50 fold-change, resistant clone #117 vs parental. The format is cell-based, human. The note with it: Clone #117, Hct116, resistance generated with compound 4, C1444A / L482I; 72 hrs. As to the method:
as §1

For test [3], the system named is Hct116 resistant cell line clone #2 (p97 V474A). The experiment in a line: GI50 fold-change, resistant clone #2 vs parental. Type of test: cell-based, human. The note with it: Clone #2, Hct116, resistance generated with compound 2, T1421C / V474A; 72 hrs. As to the method: as §1
Test [4] concerns Hct116 resistant cell line clone #45 (p97 F539I). Kind of test: GI50 fold-change, resistant clone #45 vs parental. The format is cell-based, human. To be noted: Clone #45, Hct116, resistance generated with compound 4, T1615A / F539I; 72 hrs. The procedure: as §1
In test [5] the test system is DLD-1 resistant cell line clone #83 (p97 N660N/D). Kind of test: GI50 fold-change, resistant clone #83 vs parental. The format is cell-based, human. The note with it: Clone #83, DLD-1, resistance generated with compound 4, A1978G/A / N660N/D; 72 hrs. The procedure:
as §1

The subject of test [6] is DLD-1 resistant cell line clone #61 (p97 I620I/L). The experiment in a line: GI50 fold-change, resistant clone #61 vs parental. To be noted: Clone #61, DLD-1, resistance generated with compound 4, T1859T/C / I620I/L; 72 hrs. Type of test: cell-based, human. As to the method: as §1
Test [7] deals with Hct116 resistant cell line clone #42 (p97 P472A). The experiment in a line: GI50 fold-change, resistant clone #42 vs parental. To be noted: Clone #42, Hct116, resistance generated with compound 4, C1414G / P472A; 72 hrs. The format is cell-based, human. The procedure:
as §1

The test system of test [8] is Hct116 resistant cell line clone #22 (p97 N660D). The experiment in a line: GI50 fold-change, resistant clone #22 vs parental. Type of test: cell-based, human. The note with it: Clone #22, Hct116, resistance generated with compound 4, A1978G / N660D; 72 hrs. As to the method: as §1
The test system of test [9] is Hct116 resistant cell line clone #8 (p97 N660D). Kind of test: GI50 fold-change, resistant clone #8 vs parental. To be noted: Clone #8, Hct116, resistance generated with compound 3, A1978G / N660D; 72 hrs. Type of test: cell-based, human. The procedure: as §1
In test [10] the test system is Hct116 resistant cell line clone #108 (p97 P646T). The experiment in a line: GI50 fold-change, resistant clone #108 vs parental. The format is cell-based, human. To be noted: Clone #108, Hct116, resistance generated with compound 4, C1936A / P646T; 72 hrs. As to the method: Dose titration of test compounds were conducted in Hct116, DLD-1, or LoVo cell lines. In brief, cells were plated in 384-well plates and a selected candidate drug compound was added in a 10-point 2-fold serial dilution. […] Hct116 cells were plated at 50,000 cells per 15 cm dish and treated with GI50-GI90 doses of test compound for 2-4 weeks until individual colonies of cells were visible on the plate.

Test [11] relates to DLD-1 resistant cell line clone #82 (p97 A569A/T). The experiment in a line: GI50 fold-change, resistant clone #82 vs parental. Type of test: cell-based, human. The note with it: Clone #82, DLD-1, resistance generated with compound 4, G1705G/A / A569A/T; 72 hrs. As to the method: as §1
The test system of test [12] is Hct116 resistant cell line clone #1 (p97 D649N). The experiment in a line: GI50 fold-change, resistant clone #1 vs parental. Type of test: cell-based, human. To be noted: Clone #1, Hct116, resistance generated with compound 2, G1945A / D649N; 72 hrs. As to the method:
as §1

For test [13], the system named is Hct116 resistant cell line clone #90 (p97 Q473P). The experiment in a line: GI50 fold-change, resistant clone #90 vs parental. The format is cell-based, human. The note with it: Clone #90, Hct116, resistance generated with compound 4, A1418C / Q473P; 72 hrs. As to the method: as §1
For test [14], the system named is Hct116 resistant cell line clone #47 (p97 E498D). The experiment in a line: GI50 fold-change, resistant clone #47 vs parental. The format is cell-based, human. The note with it: Clone #47, Hct116, resistance generated with compound 4, G1494T / E498D; 72 hrs. As to the method:
as §1

Test [15] concerns Hct116 resistant cell line clone #137 (p97 T475I). The experiment in a line: GI50 fold-change, resistant clone #137 vs parental. The format is cell-based, human. The note with it: Clone #137, Hct116, resistance generated with compound 4, C1424T / T475I; 72 hrs. The procedure: as §1
Test [16] concerns Hct116 resistant cell line clone #25 (p97 P500T). Kind of test: GI50 fold-change, resistant clone #25 vs parental. The format is cell-based, human. The note with it: Clone #25, Hct116, resistance generated with compound 4, C1498A / P500T; 72 hrs. The procedure: as §1
The test system of test [17] is DLD-1 resistant cell line clone #58 (p97 D649D/N). The experiment in a line: GI50 fold-change, resistant clone #58 vs parental. The note with it: Clone #58, DLD-1, resistance generated with compound 4, G1945G/A / D649D/N; 72 hrs. The format is cell-based, human. The procedure:
as §1

Test [18] concerns Hct116 resistant cell line clone #30 (p97 F516L). The experiment in a line: GI50 fold-change, resistant clone #30 vs parental. The format is cell-based, human. The note with it: Clone #30, Hct116, resistance generated with compound 4, T1546C / F516L; 72 hrs. The procedure:
as §1

Test [19] deals with Hct116 resistant cell line clone #11 (p97 E470D). To be noted: Clone #11, Hct116, resistance generated with compound 3, G1410T / E470D; 72 hrs.
Test [20] deals with Hct116 resistant cell line clone #31 (p97 C535Y). The experiment in a line: GI50 fold-change, resistant clone #31 vs parental. The note with it: Clone #31, Hct116, resistance generated with compound 4, G1604A / C535Y; 72 hrs. The format is cell-based, human. As to the method: as §1
Test [21] relates to Hct116 resistant cell line clone #5 (p97 D649A). The note with it: Clone #5, Hct116, resistance generated with compound 2, A1946C / D649A; 72 hrs.
The subject of test [22] is Hct116 resistant cell line clone #34 (p97 E470D/E). Kind of test: GI50 fold-change, resistant clone #34 vs parental. The format is cell-based, human. The note with it: Clone #34, Hct116, resistance generated with compound 4, G1410T/G / E470D/E; 72 hrs. The procedure:
as §1

For test [23], the system named is Hct116 resistant cell line clone #7 (p97 A659T). The note with it: Clone #7, Hct116, resistance generated with compound 3, G1975A / A659T; 72 hrs.

`CC(C)C[C@H](NC(=O)[C@H](Cc1ccccc1)NC(=O)c1cnccn1)B(O)O` [Compound 1, [(1R)-3-methyl-1-[(2S)-3-phenyl-2-(pyrazin-2-ylformamido)propanamido]butyl]boronic acid, reference compound]: the “Fold Change in GI50 Compared to Parental Cell Line” value (shortened to “Fold Change”) in test [1] turned out to be 0.8 fold; in test [2], 0.8 fold; in test [3] it was 1.0 fold; in test [4], 0.8 fold; in test [5] it was 1.2 fold; in test [6], 0.8 fold. Further, the “Fold Change” value turned out to be 1.0 fold in [7]; 1.0 fold in [8]; 0.8 fold in test [9]; 0.9 fold in test [10]; 1.5 fold in test [11]; 1.0 fold in test [12]. Further, the “Fold Change” value came to 1.2 fold in test [13]; 0.8 fold in test [14]; 0.8 fold in test [15]; 1.3 fold in test [16]; 1.3 fold in test [17]; 0.9 fold in test [18]. Besides, the “Fold Change” value in test [19] was 1.0 fold; in test [20] it was 0.9 fold; in [21], 1.0 fold; in [22], 0.8 fold; in test [23] it was 0.9 fold.

For `Cc1cc2c(C(N)=O)cccc2n1-c1nc2c(c(NCc3ccccc3)n1)COCC2` [Compound 4, 1-[4-(benzylamino)-5H,7H,8H-pyrano[4,3-d]pyrimidin-2-yl]-2-methyl-1H-indole-4-carboxamide], the “Fold Change” value in test [1] is reported as 5.9 fold; in test [2], 3.2 fold; in test [3] it was 8.7 fold; in test [4], 6.4 fold; in test [5], 2.7 fold; in test [6], 1.3 fold. In addition, the “Fold Change” value in test [7] turned out to be 6.1 fold; in [8], 3.1 fold; in [9] it was 1.8 fold; in test [10], 2.0 fold; in test [11], 6.6 fold; in test [12], 20.0 fold. In addition, the “Fold Change” value in [13] came to 3.0 fold; in test [14], 2.4 fold; in [15], 4.4 fold; in test [16] it was 1.6 fold; in test [17], 1.8 fold; in [18] it was 7.1 fold. The “Fold Change” value in test [19] stood at 5.4 fold; in test [20] it was 4.6 fold; in test [21], 18.7 fold; in test [22], 3.7 fold; in test [23], 3.8 fold.
